In patent US11472803B2, “7-substituted 1-aryl-naphthyridine-3-carboxylic acid amides and use thereof” (Bayer Aktiengesellschaft, priority 2016, dated 2022):

Target: T1, human M2 receptor (Homo sapiens, UniProt P08172)
T1 construct: expressed in transfected cells; host or cells: CHO-DUKX (CHO-DUKX-M2-GIRK)
T1 sequence (P08172 1-466): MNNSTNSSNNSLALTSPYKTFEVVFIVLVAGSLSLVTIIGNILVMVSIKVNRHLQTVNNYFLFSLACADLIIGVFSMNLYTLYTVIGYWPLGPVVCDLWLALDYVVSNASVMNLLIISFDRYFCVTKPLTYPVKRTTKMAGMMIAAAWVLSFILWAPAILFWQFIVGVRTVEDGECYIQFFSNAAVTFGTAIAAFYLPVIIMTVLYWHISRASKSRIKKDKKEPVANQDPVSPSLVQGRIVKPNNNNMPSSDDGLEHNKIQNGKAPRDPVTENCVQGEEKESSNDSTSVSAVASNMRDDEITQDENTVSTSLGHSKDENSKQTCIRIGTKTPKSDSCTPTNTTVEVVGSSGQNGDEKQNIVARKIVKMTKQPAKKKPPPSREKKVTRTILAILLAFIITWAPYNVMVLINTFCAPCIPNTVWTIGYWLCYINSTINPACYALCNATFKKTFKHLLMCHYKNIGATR
Assay: Functional M2-GIRK1/4 activation test: allosteric potency (EC50) and efficiency at EC20 acetylcholine
Type: cell-based
Conditions: CHO-DUKX-M2-GIRK cells; for EC50: voltage-sensitive dye, acetylcholine at EC20, in some cases mean of two or more determinations; for Emax / Efficiency: boosting of the acetylcholine effect at EC20 acetylcholine concentration
In short: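 CHO-DUKX cells stably expressing human M2 and GIRK1/4; membrane potential tracked with voltage-sensitive dye at room temperature. Compound added 50 s before acetylcholine at its EC20, then hyperpolarization read 60 s. EC50 (allosteric potency) and efficiency (boost of EC20 ACh effect) from 4-parameter Hill fit.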

Row | SMILES | EC50 [nM] | Emax [%] | Efficiency [%]
1 | CC(C)(CC(F)(F)F)NC(=O)c1cn(-c2c(F)cc(F)cc2F)c2nc(N3C[C@@H](O)[C@@H](O)C3)c(F)cc2c1=O [Example 91, 7-[(3R,4S)-3,4-Dihydroxypyrrolidin-1-yl]-6-fluoro-4-oxo-N-(4,4,4-trifluoro-2-methylbutan-2-yl)-1-(2,4,6-trifluorophenyl)-1,4-dihydro-1,8-naphthyridine-3-carboxamide] | 6.5 | 100 | –
2 | CC(C)[C@@H](C)NC(=O)c1cn(-c2c(F)cc(F)cc2F)c2nc(N3C[C@@H](O)[C@@H](O)C3)c(F)cc2c1=O [Example 99, 7-[(3R,4S)-3,4-Dihydroxypyrrolidin-1-yl]-6-fluoro-N-[(2R)-3-methylbutan-2-yl]-4-oxo-1-(2,4,6-trifluorophenyl)-1,4-dihydro-1,8-naphthyridine-3-carboxamide] | 35.5 | 96 | –
3 | CC(C)[C@H](C)NC(=O)c1cn(-c2c(F)cc(F)cc2F)c2nc(N3C[C@@H](O)[C@@H](O)C3)c(F)cc2c1=O [Example 100, 7-[(3R,4S)-3,4-Dihydroxypyrrolidin-1-yl]-6-fluoro-N-[(2S)-3-methylbutan-2-yl]-4-oxo-1-(2,4,6-trifluorophenyl)-1,4-dihydro-1,8-naphthyridine-3-carboxamide] | 31.5 | 100 | –
4 | O=C(N[C@@H](C1CC1)C(F)(F)F)c1cn(-c2c(F)cc(F)cc2F)c2nc(N3C[C@@H](O)[C@@H](O)C3)c(F)cc2c1=O [Example 101, N-[(1S)-1-Cyclopropyl-2,2,2-trifluoroethyl]-7-[(3R,4S)-3,4-dihydroxypyrrolidin-1-yl]-6-fluoro-4-oxo-1-(2,4,6-trifluorophenyl)-1,4-dihydro-1,8-naphthyridine-3-carboxamide] | 13.5 | 100 | –
5 | COC[C@@H](NC(=O)c1cn(-c2c(F)cc(F)cc2F)c2nc(N3C[C@@H](O)[C@@H](O)C3)c(F)cc2c1=O)C(C)C [Example 102, 7-[(3R,4S)-3,4-Dihydroxypyrrolidin-1-yl]-6-fluoro-N-[(2S)-1-methoxy-3-methylbutan-2-yl]-4-oxo-1-(2,4,6-trifluorophenyl)-1,4-dihydro-1,8-naphthyridine-3-carboxamide] | 295 | 92 | –
6 | CC(C)C(NC(=O)c1cn(-c2c(F)cc(F)cc2F)c2nc(N3C[C@@H](O)[C@@H](O)C3)c(F)cc2c1=O)C(C)C [Example 103, 7-[(3R,4S)-3,4-Dihydroxypyrrolidin-1-yl]-N-(2,4-dimethylpentan-3-yl)-6-fluoro-4-oxo-1-(2,4,6-trifluorophenyl)-1,4-dihydro-1,8-naphthyridine-3-carboxamide] | 8.1 | 100 | –
7 | CCC(NC(=O)c1cn(-c2c(F)cc(F)cc2F)c2nc(N3C[C@@H](O)[C@@H](O)C3)c(F)cc2c1=O)C(C)C (stereo partly drawn) [Example 105, 7-[(3R,4S)-3,4-Dihydroxypyrrolidin-1-yl]-6-fluoro-V-[2-methylpentan-3-yl]-6-fluoro-4-oxo-1-(2,4,6-trifluorophenyl)-1,4-dihydro-1,8-naphthyridine-3-carboxamide] | 7.5 | – | 97
8 | CCC(NC(=O)c1cn(-c2c(F)cc(F)cc2F)c2nc(N3C[C@@H](O)[C@@H](O)C3)c(F)cc2c1=O)C(C)C (stereo partly drawn) [Example 106, 7-[(3R,4S)-3,4-Dihydroxypyrrolidin-1-yl]-6-fluoro-V-[2-methylpentan-3-yl]-6-fluoro-4-oxo-1-(2,4,6-trifluorophenyl)-1,4-dihydro-1,8-naphthyridine-3-carboxamide] | 7.2 | – | 100
9 | CC(C)(CC(F)(F)F)NC(=O)c1cn(-c2c(F)cc(F)cc2F)c2nc(N3CC[C@H](O)C3)c(F)cc2c1=O [Example 107, 6-Fluoro-7-[(3S)-3-hydroxypyrrolidin-1-yl]-4-oxo-N-(4,4,4-trifluoro-2-methylbutan-2-yl)-1-(2,4,6-trifluorophenyl)-1,4-dihydro-1,8-naphthyridine-3-carboxamide] | 3.55 | 92 | –
10 | CC(C)[C@H](C)NC(=O)c1cn(-c2c(F)cc(F)cc2F)c2nc(N3CC[C@H](O)C3)c(F)cc2c1=O [Example 119, 6-Fluoro-7-[(3S)-3-hydroxypyrrolidin-1-yl]-N-[(2S)-3-methylbutan-2-yl]-4-oxo-1-(2,4,6-tri-fluorophenyl)-1,4-dihydro-1,8-naphthyridine-3-carboxamide] | 8.7 | 100 | –

Continued, values first:

Row | EC50 [nM] | Emax [%] | Efficiency [%] | SMILES
11 | 10.5 | 96 | – | CC(C)[C@@H](C)NC(=O)c1cn(-c2c(F)cc(F)cc2F)c2nc(N3CC[C@H](O)C3)c(F)cc2c1=O [Example 120, 6-Fluoro-7-[(3S)-3-hydroxypyrrolidin-1-yl]-N-[(2R)-3-methylbutan-2-yl]-4-oxo-1-(2,4,6-tri-fluorophenyl)-1,4-dihydro-1,8-naphthyridine-3-carboxamide]
12 | 125 | 100 | – | COC[C@H](NC(=O)c1cn(-c2c(F)cc(F)cc2F)c2nc(N3CC[C@H](O)C3)c(F)cc2c1=O)C(C)C [Example 121, 6-Fluoro-7-[(3S)-3-hydroxypyrrolidin-1-yl]-N-[(2R)-1-methoxy-3-methylbutan-2-yl]-4-oxo-1-(2,4,6-trifluorophenyl)-1,4-dihydro-1,8-naphthyridine-3-carboxamide]
13 | 3.55 | 100 | – | CC(C)C(NC(=O)c1cn(-c2c(F)cc(F)cc2F)c2nc(N3CC[C@H](O)C3)c(F)cc2c1=O)C(C)C [Example 122, N-(2,4-Dimethylpentan-3-yl)-6-fluoro-7-[(3S)-3-hydroxypyrrolidin-1-yl]-4-oxo-1-(2,4,6-tri-fluorophenyl)-1,4-dihydro-1,8-naphthyridine-3-carboxamide]
14 | 18 | 100 | – | CC(C)(NC(=O)c1cn(-c2c(F)cc(F)cc2F)c2nc(N3C[C@@H](O)[C@@H](O)C3)c(F)cc2c1=O)C(F)(F)F [Example 124, 7-[(3R,4S)-3,4-Dihydroxypyrrolidin-1-yl]-6-fluoro-4-oxo-N-(1,1,1-trifluoro-2-methylpropan-2-yl)-1-(2,4,6-trifluorophenyl)-1,4-dihydro-1,8-naphthyridine-3-carboxamide]
15 | 12 | 97 | – | CC(C)(NC(=O)c1cn(-c2c(F)cc(F)cc2F)c2nc(N3CC[C@H](O)C3)c(F)cc2c1=O)C(F)(F)F [Example 125, 6-Fluoro-7-[(3S)-3-hydroxypyrrolidin-1-yl]-4-oxo-N-(1,1,1-trifluoro-2-methylpropan-2-yl)-1-(2,4,6-trifluorophenyl)-1,4-dihydro-1,8-naphthyridine-3-carboxamide]
16 | 2.3 | 96 | – | O=C(Nc1c(Cl)cccc1Cl)c1cn(-c2c(F)cc(F)cc2F)c2nc(N3C[C@@H](O)[C@H](O)C3)c(F)cc2c1=O [Example 130, N-(2,6-Dichlorophenyl)-7-[(3R,4R)-3,4-dihydroxypyrrolidin-1-yl]-6-fluoro-4-oxo-1-(2,4,6-trifluorophenyl)-1,4-dihydro-1,8-naphthyridine-3-carboxamide]
17 | 10 | 99 | – | O=C(NCc1c(Cl)cccc1Cl)c1cn(-c2c(F)cc(F)cc2F)c2nc(N3C[C@@H](O)[C@H](O)C3)c(F)cc2c1=O [Example 132, N-(2,6-Dichlorobenzyl)-7-[(3R,4R)-3,4-dihydroxypyrrolidin-1-yl]-6-fluoro-4-oxo-1-(2,4,6-tri-fluorophenyl)-1,4-dihydro-1,8-naphthyridine-3-carboxamide]
